Patent US20180002320A1, “USE OF MACROCYCLIC PICOLINAMIDES AS FUNGICIDES” (DOW AGROSCIENCES LLC, priority 2014, published 2018)
Read-outs that look alike come from different tables or passages of the source.

Tests used:
Puccinia triticina = experiment: Wheat Brown Rust (PUCCRT) fungicidal activity; type: in vivo; settings: Low Volume (121.5 g/H)
Experimental: Technical grades of materials were dissolved in acetone, which were then mixed with nine volumes of H2O containing 110 ppm Triton X-100. The fungicide solutions were applied onto wheat seedlings using an automated booth sprayer to run-off. All sprayed plants were allowed to air dry prior to further handling. All fungicides were evaluated using the aforementioned method for their activity vs. all target diseases, unless stated otherwise. Wheat leaf blotch and brown rust activity were also evaluated using track spray applications, in which case the fungicides were formulated as EC formulations, containing 0.1% Trycol 5941 in the spray solutions. Wheat plants (variety Yuma) were grown from seed in a greenhouse in 50% mineral soil/50% soil-less Metro mix until the first leaf was fully emerged, with 7-10 seedlings per pot. These plants were inoculated with an aqueous spore suspension of Puccinia triticina either prior to or after fungicide treatments. After inoculation the plants were kept in a dark dew room at 22° C. with 100% relative humidity overnight to permit spores to germinate and infect the leaf. The plants were then transferred to a greenhouse set at 24° C. for disease to develop. Fungicide formulation, application and disease assessment followed the procedures as described in the Example A.

Zymoseptoria tritici = experiment: Leaf Blotch of Wheat (SEPTTR) fungicidal activity; type: in vivo; settings: Low Volume (121.5 g/H)
Experimental: Technical grades of materials were dissolved in acetone, which were then mixed with nine volumes of H2O containing 110 ppm Triton X-100. The fungicide solutions were applied onto wheat seedlings using an automated booth sprayer to run-off. All sprayed plants were allowed to air dry prior to further handling. All fungicides were evaluated using the aforementioned method for their activity vs. all target diseases, unless stated otherwise. Wheat leaf blotch and brown rust activity were also evaluated using track spray applications, in which case the fungicides were formulated as EC formulations, containing 0.1% Trycol 5941 in the spray solutions. Wheat plants (variety Yuma) were grown from seed in a greenhouse in 50% mineral soil/50% soil-less Metro mix until the first leaf was fully emerged, with 7-10 seedlings per pot. These plants were inoculated with an aqueous spore suspension of Zymoseptoria tritici either prior to or after fungicide treatments. After inoculation the plants were kept in 100% relative humidity (one day in a dark dew chamber followed by two to three days in a lighted dew chamber at 20° C.) to permit spores to germinate and infect the leaf. The plants were then transferred to a greenhouse set at 20° C. for disease to develop. When disease symptoms were fully expressed on the 1st leaves of untreated plants, infection levels were assessed on a scale of 0 to 100 percent disease severity. Percent disease control was calculated using the ratio of disease severity on treated plants relative to untreated plants.

[1] = 24 h, 1 Day Protectant, read-out: PUCCRT 1DP disease control
[2] = 72 h, 3 Day Curative, read-out: PUCCRT 3DC disease control
[3] = 24 h, 1 Day Protectant, read-out: SEPTTR 1DP disease control
[4] = 72 h, 3 Day Curative, read-out: SEPTTR 3DC disease control

| Structure (SMILES) | pest or weed control at 121.5 g/ha (Puccinia triticina; [1]) | pest or weed control at 121.5 g/ha (Puccinia triticina; [2]) | pest or weed control at 121.5 g/ha (Zymoseptoria tritici; [3]) | pest or weed control at 121.5 g/ha (Zymoseptoria tritici; [4]) |
| --- | --- | --- | --- | --- |
| CCCO[C@@H]1[C@@H](CC2CCCC2)CCCC[C@H](NC(=O)c2nccc(OC)c2OCOC(C)=O)C(=O)O[C@H]1C [Compound 57] | > 80% | < 80% | < 80% |  |
| C=CCO[C@@H]1[C@@H](CC2CCCC2)CCCC[C@H](NC(=O)c2nccc(OC)c2OCOC(C)=O)C(=O)O[C@H]1C [Compound 53] | < 80% |  |  | < 80% |
| COc1ccnc(C(=O)N[C@H]2CCCC[C@H](OC)[C@@H](OC)[C@H](C)OC2=O)c1OCOC(C)=O [Compound 22] | > 80% | > 80% |  | < 80% |
| COc1ccnc(C(=O)N[C@H]2CCOC[C@H](Oc3ccccc3)[C@@H](OCC(C)C)[C@H](C)OC2=O)c1OCOC(C)=O [Compound 46] | > 80% | < 80% | > 80% | < 80% |
| COc1ccnc(C(=O)N[C@H]2CCCC[C@H](CC3CCCC3)[C@@H](OC)[C@H](C)OC2=O)c1OC(C)=O [Compound 59] | > 80% | > 80% | < 80% |  |
| CCCOC(=O)O[C@H]1CCCC[C@H](NC(=O)c2nccc(OC)c2OCOC(C)=O)C(=O)O[C@@H](C)[C@@H]1OCC(C)C [Compound 38] | > 80% | < 80% | > 80% | > 80% |
| CC[C@H]1CCOC[C@H](NC(=O)c2nccc(OC)c2OCOC(C)=O)C(=O)O[C@@H](C)[C@@H]1OCC(C)C [Compound 70] | > 80% | > 80% | > 80% | < 80% |
| CCOCC(=O)OCOc1c(OC)ccnc1C(=O)N[C@H]1COCC[C@H](Cc2ccc(F)cc2)[C@@H](OCC2CC2)[C@H](C)OC1=O [Compound 78] | > 80% | > 80% | > 80% | < 80% |
| COc1ccnc(C(=O)N[C@H]2CCOC[C@H](OC(=O)C(C)C)[C@@H](Oc3ccccc3)[C@H](C)OC2=O)c1OCOC(C)=O [Compound 44] | > 80% | > 80% | < 80% | < 80% |
| COc1ccnc(C(=O)N[C@H]2CCCC[C@H](Oc3ccccc3)[C@@H](Oc3ccccc3)[C@H](C)OC2=O)c1OCOC(C)=O [Compound 19] | > 80% | > 80% | > 80% | > 80% |
| COc1ccnc(C(=O)N[C@H]2CCOC[C@H](OC)[C@@H](Oc3ccccc3)[C@H](C)OC2=O)c1OC(C)=O [Compound 48] | > 80% | > 80% | > 80% | > 80% |
| COc1ccnc(C(=O)N[C@H]2CCCC[C@H](OC)[C@@H](OC3CCCC3)[C@H](C)OC2=O)c1OCOC(C)=O [Compound 34] | > 80% | > 80% | < 80% | > 80% |
| COc1ccnc(C(=O)N[C@H]2CCCC[C@H](OC3CCCC3)[C@@H](OC)[C@H](C)OC2=O)c1OCOC(C)=O [Compound 35] | > 80% | < 80% |  |  |
| COc1ccnc(C(=O)N[C@H]2CCOC[C@H](OCC(C)C)[C@@H](OCC(C)C)[C@H](C)OC2=O)c1OCOC(C)=O [Compound 43] | > 80% | < 80% |  |  |
